Reference: the supplement of paper PMC10307832

How the values were obtained:
Experiment in all cases: relative viability (nuclei count vs DMSO), 5 days (fraction); higher = more cells survive
RU-SKI 43 + Alpelisib = compound: CC[C@@H](C)CNCC(=O)N1CCC2=C([C@@H]1COC3=CC=CC(=C3)C)C=CS2 [RU-SKI 43] + Cc1nc(NC(=O)N2CCC[C@H]2C(N)=O)sc1-c1ccnc(C(C)(C)C(F)(F)F)c1 [Alpelisib] (partner 2 µM)
Outline: (§1)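 Values are medians from duplicate plates. Each reflects relative viability, defined as the nuclei count of treated wells over that of vehicle wells. Lung cancer cell lines in 1536-well plates were pin-tool dosed one day after seeding with one drug alone or with a fixed anchor-drug dose plus five library-drug doses (not always all listed) in √10 steps, then fixed, stained and imaged at 4× after 5 days.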

Irinotecan + Trametinib = compound: CCc1c2c(nc3ccc(OC(=O)N4CCC(N5CCCCC5)CC4)cc13)-c1cc3c(c(=O)n1C2)COC(=O)[C@]3(O)CC [Irinotecan] + CC(=O)Nc1cccc(-n2c(=O)n(C3CC3)c(=O)c3c(Nc4ccc(I)cc4F)n(C)c(=O)c(C)c32)c1 [Trametinib] (partner 0.02 µM)
Outline: as §1

Irinotecan + Vorinostat = compound: CCc1c2c(nc3ccc(OC(=O)N4CCC(N5CCCCC5)CC4)cc13)-c1cc3c(c(=O)n1C2)COC(=O)[C@]3(O)CC [Irinotecan] + O=C(CCCCCCC(=O)Nc1ccccc1)NO [Vorinostat] (partner 1 µM)
Outline: as §1

MK-8033 + Dasatinib = compound: Cn1cc(-c2cnc3ccc4ccc(CS(=O)(=O)NCc5ccccn5)cc4c(=O)c3c2)cn1 [MK-8033] + Cc1nc(Nc2ncc(C(=O)Nc3c(C)cccc3Cl)s2)cc(N2CCN(CCO)CC2)n1 [Dasatinib] (partner 0.075 µM)
Outline: as §1

Cell Line	relative viability (RU-SKI 43 + Alpelisib; first compound 0.1 µM)	relative viability (RU-SKI 43 + Alpelisib; first compound 0.3162 µM)	relative viability (RU-SKI 43 + Alpelisib; first compound 1 µM)	relative viability (RU-SKI 43 + Alpelisib; first compound 3.162 µM)	relative viability (RU-SKI 43 + Alpelisib; first compound 10 µM)	relative viability (Irinotecan + Trametinib; first compound 0.6325 µM)	relative viability (Irinotecan + Trametinib; first compound 2 µM)	relative viability (Irinotecan + Trametinib; first compound 6.325 µM)	relative viability (Irinotecan + Trametinib; first compound 20 µM)	relative viability (Irinotecan + Vorinostat; first compound 0.6325 µM)	relative viability (Irinotecan + Vorinostat; first compound 2 µM)	relative viability (Irinotecan + Vorinostat; first compound 6.325 µM)	relative viability (Irinotecan + Vorinostat; first compound 20 µM)	relative viability (MK-8033 + Dasatinib; first compound 0.02 µM)	relative viability (MK-8033 + Dasatinib; first compound 0.06325 µM)	relative viability (MK-8033 + Dasatinib; first compound 0.2 µM)	relative viability (MK-8033 + Dasatinib; first compound 0.6325 µM)	relative viability (MK-8033 + Dasatinib; first compound 2 µM)
NCI-H1651	1.08	1.25	0.953	0.926	0.936	0.831	0.657	0.419	0.134	0.362	0.533	0.364	0.158	0.412	0.331	0.285	0.433	0.388
CAL-12T	1.06	1.53	1.44	1.39	1.25	0.309	0.292	0.299	0.274	0.733	0.592	0.403	0.259	0.478	0.3	0.405	0.367	0.456
NCI-H2126	0.769	0.82	0.825	0.831	0.727	0.546	0.347	0.273	0.304	0.4	0.616	0.335	0.292	0.601	0.556	0.597	0.601	0.573
NCI-H650	1.14	0.981	1.12		1.07	0.733	0.308	0.173	0.206	0.329	0.303	0.134	0.203	0.491	0.446	0.471	0.386	0.489
COR-L 105	0.935	0.818	0.931	0.916	0.921	0.432	0.425	0.474	0.401	0.856	0.643	0.621	0.334	0.368	0.303	0.328	0.335	0.402
LK-2	1.27	1.41	1.18		1.24	0.821	0.7	0.465	0.281	0.363	0.264	0.256	0.242	0.269		0.251	0.376	0.304
NCI-H2347	1.1	1.19	1.13	1.15	0.949	0.271	0.382	0.351	0.415	0.435	0.631	0.514	0.548	0.288	0.317	0.314	0.362	0.354
PC-14	0.9	0.91	1.04	0.938	0.956	0.744	0.436	0.164	0.137	0.477	0.392	0.217	0.102	0.254	0.181	0.246	0.232	0.245
NCI-H1793	0.676	0.784	0.764	0.894	0.686		0.515	0.351	0.262		0.633	0.372	0.244	0.425	0.388	0.394	0.365	0.338
NCI-H2170	0.78	0.855	0.86	0.826	0.808	0.798	0.309	0.119	0.111	0.864	0.753	0.327	0.102	0.681	0.553	0.604	0.581	0.481
LOU-NH91	0.72	0.738	0.711	0.681	0.7	0.774	0.768	0.466	0.29	0.837	0.875	0.315	0.147	0.534	0.388	0.537	0.57	0.544
NCI-H596	0.395	0.481	0.508	0.6	0.482	0.86	0.731	0.682	0.758	0.587	0.639	0.728	0.737	0.55	0.535	0.586	0.626	0.455
LXF-289	1.02	0.96	1.1	1.13	0.963	0.653	0.328	0.268	0.197	0.724	0.688	0.41	0.195	0.197	0.213	0.208	0.189	0.215
NCI-H727	0.571	0.477	0.729	0.249	0.479	0.373	0.336	0.382	0.346	1.03	0.731	0.616	0.641	0.363		0.464	0.435	0.322
NCI-H2009	1.18	1.3	1.2	1.15	1.13	0.282	0.34	0.213	0.0843	0.589	0.379	0.236	0.135	0.299	0.329	0.308	0.232	0.279
NCI-H1395	1.14	1.38	0.936	1.29	0.836		0.812	0.549	0.375		0.714	0.522	0.268	0.391	0.368	0.406	0.378	0.403
NCI-H1993	0.655	0.678	0.702	0.701	0.66		0.5	0.527	0.517		0.529	0.584	0.612	0.482	0.493	0.533	0.468	0.502
HCC-366	0.439	0.53	0.438	0.572	0.355	0.266	0.184	0.0834	0.0768	0.145	0.137	0.0609	0.069	0.617	0.638	0.564	0.634	0.651
